In patent publication US20260027131A1, “PRODRUGS, PRODRUG COMPOSITIONS AND RELATED METHODS” (Praesidia Biotherapeutics Inc., priority 2022, published 2026):
Where two headings read alike, the source gives them in different places.

Assays:
[1] = Metabolic stability in rat liver microsomes; format: in vitro ADME; conditions: rat liver microsomes, 1 μM, NADPH; Table 6, unit not given
Description: Rat liver microsomes were obtained from qualified vendors and metabolic stability of the test compound was determined at 1 μM. The compound was incubated at 37° C. with 0.5 mg microsome/mL in the buffer in the presence of 1 mM NADPH. Aliquots of 50 μL were taken from the reaction solution at 0, 15, 30, 45 and 60 minutes. […] All samples were analyzed in duplicates.

[2] = Chemical stability at pH 4.5 and pH 7.4 in PBS; format: physicochemical; conditions: for Chemical Stability, pH 4.5: PBS pH 4.5, 37° C.; for Chemical Stability, pH 4.5 / Chemical Stability, pH 7.4: 5 μM, up to 240 min; for Chemical Stability, pH 7.4: PBS pH 7.4, 37° C.; for Chemical stability: Table 6, pH not stated
Description: The assay was performed in duplicate. […] Samples were incubated at 37° C. at 600 rpm.

[3] = Pharmacokinetic studies in rats: plasma and lung; conditions: rat, single i.v., 2 mg/kg dexamethasone equivalent
Description: (§1) Six to eight weeks old Sprague-Dawley rats were procured from a qualified provider. Test compounds were introduced in rats by a single intravenous administration. […] Blood samples (0.1, 0.2 or 0.5 mL) were collected with a 1 mL syringe containing anticoagulants K2EDTA. Blood samples were centrifuged to obtain plasma for analysis. […] After collection at each time point, lung samples were frozen at −75° C. Prior to analysis, a portion of lung sample was weighed and homogenized with phosphate buffer saline. […] Data analysis and pharmacokinetic parameters were generated using WinNonlin software.

Caco-2 cell monolayers = experiment: Permeability study using Caco-2 cell monolayers; conditions: 2 hours; for Permeability A-B: apical to basolateral; for Permeability B-A: basolateral to apical
Description: (§2) CaCO-2 cells were cultured, and a monolayer was developed in-house in 96 well-plates over 18 days using standard protocol. The monolayer was tested for the integrity of the cell monolayer before using.
(§3) Test compounds were added to the transwell insert (apical compartment) to determine the rate of drug transport in the apical to basolateral direction. To determine the rate of drug transport in the basolateral to apical direction, the test compound was added to the receiver plate wells (basolateral compartment). Appropriate amount of HBSS (10 mM HEPES, pH 7.4) was added in both compartments for a final volume of 200 μL. The plates were incubated at 37° C. with shaking at 150 rpm on a rotary shaker for 2 hours. At the end of the transport period, 50 μL from the apical and basolateral wells were collected and 4 volume of cold acetonitrile containing internal standards (IS: 100 nM alprazolam, 200 nM labetalol, and 2 μM ketoprofen) was added to each sample to terminate the reaction. The samples were vortexed and centrifuged at 3,800 g for 20 minutes. An aliquot of 150 μL of the supernatant was used for LC/MS/MS analysis. All samples were analyzed in duplicates. Samples were analyzed through LC/MS/MS for estimating the permeability and efflux of the compounds across Caco-2 cell monolayers.

[4] = Permeability study using Caco-2 cell monolayers; conditions: human, Caco-2, pH 7.4
Description: as §2, §3

Rat plasma stability = format: in vitro ADME; conditions: for Rat plasma stability: Table 6, unit not given; for half-life at 5 μM: rat, plasma
Description: Rat and human plasma were obtained from qualified vendors. […] The assay was performed in duplicate.

[5] = target: T1, Glucocorticoid receptor (GR) (Homo sapiens, UniProt P04150); experiment: TR-FRET GR competitive binding assay; conditions: 0.1 μM
T1 sequence (P04150 1-777): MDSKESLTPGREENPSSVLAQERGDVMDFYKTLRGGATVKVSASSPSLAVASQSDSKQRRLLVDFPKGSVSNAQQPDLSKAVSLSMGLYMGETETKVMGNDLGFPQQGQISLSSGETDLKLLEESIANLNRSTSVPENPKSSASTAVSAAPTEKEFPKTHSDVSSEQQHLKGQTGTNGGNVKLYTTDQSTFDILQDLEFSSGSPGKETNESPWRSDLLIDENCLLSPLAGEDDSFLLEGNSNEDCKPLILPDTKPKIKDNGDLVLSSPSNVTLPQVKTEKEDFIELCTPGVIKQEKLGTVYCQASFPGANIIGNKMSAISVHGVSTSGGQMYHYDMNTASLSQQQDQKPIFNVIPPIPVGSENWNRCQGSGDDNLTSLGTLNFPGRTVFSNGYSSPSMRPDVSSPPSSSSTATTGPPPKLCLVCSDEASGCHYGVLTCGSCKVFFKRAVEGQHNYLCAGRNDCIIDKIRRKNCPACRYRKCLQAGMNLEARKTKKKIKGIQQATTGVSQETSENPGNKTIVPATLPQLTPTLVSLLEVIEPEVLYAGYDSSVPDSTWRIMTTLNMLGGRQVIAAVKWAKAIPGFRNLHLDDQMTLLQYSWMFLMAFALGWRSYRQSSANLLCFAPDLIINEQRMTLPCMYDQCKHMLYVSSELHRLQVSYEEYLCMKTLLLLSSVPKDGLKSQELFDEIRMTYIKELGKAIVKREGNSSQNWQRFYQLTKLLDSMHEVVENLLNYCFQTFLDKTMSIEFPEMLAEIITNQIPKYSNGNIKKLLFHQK
Description: Glucocorticoid receptor (GR) binding of prodrugs was determined using TR-FRET GR competitive binding assay. Three-point (0.1, 1 and 10 μM) binding was evaluated for each prodrug.

[6] = Sprague-Dawley, rat, in vivo, iv, 2 mg/kg
Description: as §1, with “1 ml” for “1 mL”, “of brain” for “of lung”

in vitro = conditions: human, plasma
Description: (§4) Rat and human plasma were obtained from qualified vendors. 5 μL of 500 μM of the test article solution was added to 495 μL of pre-incubated human or rat plasma to reach a final concentration of 5 μM. The final concentration of organic solvents was not more than 0.5%. The assay was performed in duplicate. The reaction samples were incubated in a 37° C. water bath with shaking at approximately 60 rpm. 50 μL of the reaction samples were collected at 0, 30, 60, 120 and 180 minutes. The reaction was stopped by adding 300 μL of room temperature quench solution (acetonitrile containing internal standards (IS, 200 nM labetalol, 100 nM alprazolam and 2 μM ketoprofen)). The samples were vortexed for 5 minutes followed by centrifugation of the samples at 3,220 g for 30 minutes at room temperature to precipitate the protein. 100 μL of the supernatant was transferred to a new plate and diluted with 100 μL or 200 μL water according to the LC/MS signal response and peak shape. The samples were mixed well and analyzed using LC/MS/MS. The remaining percentage of parent drug versus reaction time was used to calculate the t1/2 value.

Description for Human plasma stability: as §4

SMILES | RLM [1] | Chemical Stability, pH 4.5 [2] | Chemical Stability, pH 7.4 [2] | Chemical stability [2] | Conc in Prodrug in lung ([3]; 15 min) | Conc of Prodrug in plasma ([3]; 15 min) | Conc in Prodrug in lung ([3]; 60 min) | Conc of Prodrug in plasma ([3]; 60 min) | Conc in Prodrug in lung ([3]; 360 min) | Conc of Prodrug in plasma ([3]; 360 min) | Permeability A-B (Caco-2 cell monolayers) | Permeability B-A (Caco-2 cell monolayers) | efflux ratio at 2 h [4] | Rat plasma stability (Rat plasma stability) | half-life at 5 μM (Human plasma stability) [h] | also measured
CC(C)[C@H](N)C(=O)Nc1ccccc1C1(C(=O)OCC(=O)[C@@]2(O)[C@H](C)C[C@H]3[C@@H]4CCC5=CC(=O)C=C[C@]5(C)[C@@]4(F)[C@@H](O)C[C@@]32C)CC1.Cl [Compound 25] | 38 | Yes | Yes | Yes | 3895 ± 368 | 742 ± 96 | 5827 ± 1483 | 367 ± 55 | 1425 ± 509 | 34 ± 10 | A-B = 0.065 × 10^−6, cm/s | B-A = 11 × 10^−6, cm/s | 170 | >240 | > 4 | half-life at 5 μM (Rat plasma stability; read-out: Rat Plasma Stability t½): > 4 h; GR Binding Data [5]: 19%
CC(C)C(C(=O)N1CCCC1C(=O)N(C)CC(C)(C)C(C)C(=O)OCC(=O)[C@@]1(O)[C@H](C)C[C@H]2[C@@H]3CCC4=CC(=O)C=C[C@]4(C)[C@@]3(F)[C@@H](O)C[C@@]21C)N(C)C (stereo partly drawn) [Compound 33] |  |  |  |  |  |  |  |  |  |  |  |  |  |  |  | Conc of Dex in plasma [6]: 18.8 ± 7.75; Conc of Prodrug in plasma [6]: 6549 ± 1537; half-life at 5 μM (in vitro): > 4 h; half-life at 5 μM (Rat plasma stability): > 4 h
COc1cccc(NC(=O)[C@@H](N)C(C)C)c1C(=O)OCC(=O)[C@@]1(O)[C@H](C)CC2[C@@H]3CCC4=CC(=O)C=C[C@]4(C)[C@@]3(F)[C@@H](O)C[C@@]21C.Cl (stereo partly drawn) [Compound 9] | 24 | Yes | Yes | Yes | 992 ± 422 | 694 ± 83 | 959 ± 283 | 244 ± 13 | 433 ± 212 | 21 ± 1.5 | A-B = 0.025 × 10^−6, cm/s | B-A = 7 × 10^−6, cm/s | 279 | >240 | > 4 | 
